Results from patent publication US20110207726A1, “Inhibitors of Human Cathepsin L, Cathepsin B, and Cathepsin S” (The Trustees of the University of Pennsylvania, priority 2008, published 2011).
Read-outs that look alike come from different tables or passages of the source.

Assays:
zebrafish = assay: Zebrafish live organism toxicity assay; conditions: at 100 μM
Ebola virus pseudotype = assay: microbe, parasite or virus in culture; type: cell-based; conditions: read-out: IC50, Ebola virus pseudotype entry
[1] = tested on: SARS coronavirus pseudotype; assay: microbe, parasite or virus in culture; type: cell-based; conditions: read-out: IC50, SARS-CoV pseudotype entry
[2] = tested on: Vesicular stomatitis virus (VSV); assay: microbe, parasite or virus in culture; type: cell-based; conditions: read-out: IC50, VSV entry (control)
Human liver cathepsin B = molecular target: T1, Human liver cathepsin B (Homo sapiens, UniProt P07858); assay: Cathepsin B assay, IC50 determination; type: biochemical; conditions: for Selectivity Index (IC50 Cat B)/(IC50 Cat L): Cathepsin B vs cathepsin L
T1 construct: Human liver cathepsin B (Calbiochem 219362, 65 ng/mL); purchased Calbiochem 219362; host or cells: human liver
Outline: (§1)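 Spleen cathepsin S (40 ng/mL) with 15 microM Z-Phe-Arg-AMC and liver cathepsin B (65 ng/mL) with 15 microM Z-Arg-Arg-AMC, in 20 mM sodium acetate, 1 mM EDTA, 5 mM cysteine, pH 5.5. AMC fluorescence release monitored; IC50 measured in triplicate.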

Human spleen cathepsin S = molecular target: T2, Human spleen cathepsin S (Homo sapiens, UniProt P25774); assay: Cathepsin S assay, IC50 determination; type: biochemical
T2 construct: Human spleen cathepsin S (Calbiochem 219344, 40 ng/mL); purchased Calbiochem 219344; host or cells: human spleen
Outline: as §1

human cathepsin L = human cathepsin L (Homo sapiens, UniProt P07711); assay: Preincubation studies, cathepsin L; type: biochemical; set-up: 8.7 ng/mL human liver cathepsin L (Calbiochem 219402); purchased Calbiochem 219402; host or cells: human liver; conditions: preincubation with enzyme 4 h; read-out: IC50 against human cathepsin L after 4 hours preincubation
Method: To establish the time-dependent mechanism of inhibition, enzyme and inhibitor were preincubated for various time points in a 96-well microplate prior to the addition of substrate to initiate the enzymatic reaction. 47.5 μL of cathepsin L (18.3 ng/mL) and 47.5 μL of Compound No. 1 at various concentrations in assay buffer were incubated up to 4 hours. Five μL of Z-Phe-Arg-AMC substrate were then added and the plate was monitored for AMC hydrolysis on the Envision fluorescent microplate reader.

human liver cathepsin L [3] = molecular target: T3, human liver cathepsin L (Homo sapiens, UniProt P07711); assay: Cathepsin L assay, IC50 determination; type: biochemical
T3 construct: 8.7 ng/mL human liver cathepsin L (Calbiochem 219402); purchased Calbiochem 219402; host or cells: human liver
Outline: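 Enzyme (300 pM) pre-activated for 30 min in 20 mM sodium acetate, 1 mM EDTA, 5 mM cysteine, pH 5.5, then incubated 1 h at room temperature with 1 microM Z-Phe-Arg-AMC and compound. Fluorescent read-out on a microplate reader; IC50 in triplicate.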

[4] = Stability in DMSO and cathepsin L assay buffer; type: physicochemical
Source text: Some variability in IC50 values determined for Compound (iii) prompted us to explore the stability of both Compound No. 1 and Compound (iii) in solvents relevant to the bioassay.

human liver cathepsin L [5] = molecular target: T3, human liver cathepsin L; assay: HTS of MLSMR library and confirmatory dose response against cathepsin L; type: biochemical; conditions: 10 μM compound
Method: 57,821 compounds from the NIH Molecular Libraries Small Molecule Repository (MLSMR) were screened against human liver cathepsin L. This screen was performed in 384-well Corning 3676 black, low-volume, non-binding surface (NBS)-coated polystyrene plates using a total reaction volume of 10 μL per well. Final well concentrations were: 10 μM compound (2% DMSO), 300 pM (8.7 ng/mL) human liver cathepsin L, 1 μM Z-FR-AMC substrate, and 20 mM sodium acetate buffer containing 1 mM EDTA and […], pH 5.5. Cathepsin L was activated in the assay buffer for 30 minutes prior to dispensing into wells. Assay plates were incubated at room temperature for one how and the fluorescence intensity of each well was read with a PerkinElmer Envision plate reader (Ex: 355 nm, Em: 460 nm) to measure hydrolysis of the AMC substrate.
Library samples containing 2,5-disubstituted oxadiazoles were identified as potent hits in a high throughput screen of the NIH Molecular Libraries Small Molecule Repository directed at discovering inhibitors of cathepsin L (Table I). […] Analyses by LC-MS of original library samples indicated the presence of a number of impurities, in addition to the oxadiazoles. Synthesis and bioassay of the probable impurities led to the identification of a thiocarbazate that likely originated via ring opening of the oxadiazole. […]

[6] = no preincubation of enzyme and inhibitor, read-out: IC50 against cathepsin L (no preincubation)

T2 sequence (P25774 115-331): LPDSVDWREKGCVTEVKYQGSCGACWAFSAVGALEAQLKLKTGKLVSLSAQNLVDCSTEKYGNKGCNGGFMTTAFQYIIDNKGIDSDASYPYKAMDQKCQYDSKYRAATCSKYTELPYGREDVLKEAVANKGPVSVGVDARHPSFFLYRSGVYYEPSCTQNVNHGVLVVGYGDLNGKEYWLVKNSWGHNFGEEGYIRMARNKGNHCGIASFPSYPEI
T3 sequence (P07711 114-288 limits assumed): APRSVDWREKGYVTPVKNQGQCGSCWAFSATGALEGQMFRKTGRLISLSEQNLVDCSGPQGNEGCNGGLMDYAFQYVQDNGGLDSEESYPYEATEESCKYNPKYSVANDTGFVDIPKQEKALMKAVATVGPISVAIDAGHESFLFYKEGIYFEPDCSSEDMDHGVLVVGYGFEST
T3 sequence (P07711 292-333 limits assumed): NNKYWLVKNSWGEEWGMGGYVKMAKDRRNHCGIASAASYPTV
human cathepsin L, sequence (P07711 114-288 limits assumed): as the sequence (P07711 114-288 limits assumed) above
human cathepsin L, sequence (P07711 292-333 limits assumed): as the sequence (P07711 292-333 limits assumed) above

CC(C)(C)OC(=O)N[C@@H](Cc1c[nH]c2ccccc12)C(=O)NNC(=O)OCC(=O)N1CCCc2ccccc21 [Compound No. 96]
toxicity to zebrafish (zebrafish): Non-toxic to zebrafish at 100 μM
IC50 (Ebola virus pseudotype; Zaire ebolavirus, HEK-293T): 0.193 ± 0.039 µM
IC50 (Ebola virus pseudotype): ~0.2 µM
IC50 ([1]; Severe acute respiratory syndrome coronavirus, HEK-293T): 0.273 ± 0.049 µM
IC50 [1]: ~0.2 µM
IC50 ([2]; Vesicular stomatitis virus): ≥ 10 µM
IC50 [2]: > 10 µM
Selectivity Index (IC50 Cat B)/(IC50 Cat L) (Human liver cathepsin B; no preincubation): 724.6
Selectivity Index (IC50 Cat B)/(IC50 Cat L) (Human liver cathepsin B; no preincubation, listed as SID 46493575): 725
IC50 (Human liver cathepsin B; Table 18, Cathepsin B, human liver, no preincubation, read-out: IC50): 5.07 ± 0.883 µM
IC50 (Human liver cathepsin B; Tables 2-11, read-out: Cat B): 10.1 µM
IC50 (Human spleen cathepsin S; Tables 2-11, read-out: Cat S): 0.025 µM
IC50 (human cathepsin L): 0.0004 µM
Selectivity Index (human liver cathepsin L [3]; Table 18, Cathepsin L): 1.0
IC50 (human liver cathepsin L [3]; Tables 2-11, read-out: Cat L): 0.006 µM
IC50 (human liver cathepsin L [3]; [6]): 0.0069 µM

CCc1ccccc1NC(=O)CSC(=O)NNC(=O)[C@@H](N)Cc1c[nH]c2ccccc12 [Compound (iii)]
stability in DMSO [4]: unstable
IC50 (human liver cathepsin L [3]; [6]): 0.133 µM

CC(C)(C)OC(=O)N[C@@H](Cc1c[nH]c2ccccc12)C(=O)NNC(=O)NCC(=O)N1CCCc2ccccc21 [Compound No. 125]
IC50 (Human liver cathepsin B; Tables 2-11, read-out: Cat B): ≥ 25 µM
IC50 (Human spleen cathepsin S; Tables 2-11, read-out: Cat S): 13 µM
IC50 (human liver cathepsin L [3]; Tables 2-11, read-out: Cat L): 2.34 µM

CCc1ccccc1NC(=O)CSC(=O)NNC(=O)C[C@@H](Cc1c[nH]c2ccccc12)NC(=O)OC(C)(C)C [Compound No. 86]
IC50 (Human liver cathepsin B; Table 1, read-out: IC50 Cat B): > 25 µM
IC50 (Human spleen cathepsin S; Table 1, read-out: IC50 Cat S): > 25 µM
IC50 (human liver cathepsin L [3]; Table 1, read-out: IC50 Cat L): > 25 µM

C[C@H](NC(=O)OC(C)(C)C)C(=O)NNC(=O)SCC(=O)N1CCCc2ccccc21 [Compound No. 26]
IC50 (Human liver cathepsin B; Table 1, read-out: IC50 Cat B): > 25 µM
IC50 (Human spleen cathepsin S; Table 1, read-out: IC50 Cat S): > 25 µM
IC50 (human liver cathepsin L [3]; Table 1, read-out: IC50 Cat L): ≥ 25 µM

CCc1ccccc1NC(=O)CSC(=O)NNC(=O)[C@@H](NC(=O)OC(C)(C)C)C(C)C [Compound No. 21]
IC50 (Human liver cathepsin B; Table 1, read-out: IC50 Cat B): 0.87 µM
IC50 (Human spleen cathepsin S; Table 1, read-out: IC50 Cat S): 3.74 µM
IC50 (human liver cathepsin L [3]; Table 1, read-out: IC50 Cat L): 0.66 µM

CCc1ccccc1NC(=O)CSC(=O)NNC(=O)C[C@@H]1CCCN1C(=O)OC(C)(C)C [Compound No. 80]
IC50 (Human liver cathepsin B; Table 1, read-out: IC50 Cat B): > 25 µM
IC50 (Human spleen cathepsin S; Table 1, read-out: IC50 Cat S): > 25 µM
IC50 (human liver cathepsin L [3]; Table 1, read-out: IC50 Cat L): > 25 µM

CC(C)C[C@H](NC(=O)[C@H]1O[C@@H]1C(=O)O)C(=O)NCCCCN=C(N)N [E-64]
HTS identification as cathepsin L inhibitor (in words) (human liver cathepsin L [5]): potent inhibitors of cathepsin L

CCc1ccccc1NC(=O)COC(=O)NNC(=O)[C@H](Cc1c[nH]c2ccccc12)NC(=O)OC(C)(C)C [Compound No. 93]
IC50 (Human liver cathepsin B; Tables 2-11, read-out: Cat B): ≥ 25 µM
IC50 (Human spleen cathepsin S; Tables 2-11, read-out: Cat S): 0.062 µM
IC50 (human liver cathepsin L [3]; Tables 2-11, read-out: Cat L): 0.011 µM

CC(C)CCNC(=O)[C@H](CC(C)C)NC(=O)[C@H]1O[C@@H]1C(=O)O [E-64c]
HTS identification as cathepsin L inhibitor (in words) (human liver cathepsin L [5]): potent inhibitors of cathepsin L

CCc1ccccc1NC(=O)CSC(=O)NNC(=O)[C@@H](NC(=O)OC(C)(C)C)C(C)OCc1ccccc1 (some centres unmarked) [Compound No. 44]
IC50 (Human liver cathepsin B; Table 1, read-out: IC50 Cat B): 3.67 µM
IC50 (Human spleen cathepsin S; Table 1, read-out: IC50 Cat S): 3.32 µM
IC50 (human liver cathepsin L [3]; Table 1, read-out: IC50 Cat L): 13.7 µM

CCc1ccccc1NC(=O)CSC(=O)NNC(=O)CNC(=O)OC(C)(C)C [Compound No. 64]
IC50 (Human liver cathepsin B; Table 1, read-out: IC50 Cat B): ≥ 25 µM
IC50 (Human spleen cathepsin S; Table 1, read-out: IC50 Cat S): > 25 µM
IC50 (human liver cathepsin L [3]; Table 1, read-out: IC50 Cat L): > 25 µM

CC(C)(C)OC(=O)N1CCC[C@H]1CC(=O)NNC(=O)SCC(=O)N1CCCc2ccccc21 [Compound No. 81]
IC50 (Human liver cathepsin B; Table 1, read-out: IC50 Cat B): > 25 µM
IC50 (Human spleen cathepsin S; Table 1, read-out: IC50 Cat S): > 25 µM
IC50 (human liver cathepsin L [3]; Table 1, read-out: IC50 Cat L): > 25 µM

CC(C)(C)OC(=O)N[C@@H](COCc1ccccc1)C(=O)NNC(=O)SCC(=O)Nc1ccccc1[N+](=O)[O-] [Compound No. 55]
IC50 (Human liver cathepsin B; Table 1, read-out: IC50 Cat B): 5.07 µM
IC50 (Human spleen cathepsin S; Table 1, read-out: IC50 Cat S): 1.44 µM
IC50 (human liver cathepsin L [3]; Table 1, read-out: IC50 Cat L): 0.7 µM

CSCC[C@H](NC(=O)OC(C)(C)C)C(=O)NNC(=O)SCC(=O)N1CCCc2ccccc21 [Compound No. 18]
IC50 (Human liver cathepsin B; Table 1, read-out: IC50 Cat B): 2.21 µM
IC50 (Human spleen cathepsin S; Table 1, read-out: IC50 Cat S): 0.63 µM
IC50 (human liver cathepsin L [3]; Table 1, read-out: IC50 Cat L): 1.34 µM

CCOC(=O)c1ccc(NC(=O)CSC(=O)NNC(=O)[C@H](Cc2ccc(OCc3ccccc3)cc2)NC(=O)OC(C)(C)C)cc1 [Compound No. 43]
IC50 (Human liver cathepsin B; Table 1, read-out: IC50 Cat B): > 25 µM
IC50 (Human spleen cathepsin S; Table 1, read-out: IC50 Cat S): 1.08 µM
IC50 (human liver cathepsin L [3]; Table 1, read-out: IC50 Cat L): 0.14 µM

CSCC[C@H](NC(=O)OC(C)(C)C)C(=O)NNC(=O)SCC(=O)NCCc1c[nH]c2ccccc12 [Compound No. 20]
IC50 (Human liver cathepsin B; Table 1, read-out: IC50 Cat B): 2.42 µM
IC50 (Human spleen cathepsin S; Table 1, read-out: IC50 Cat S): 0.31 µM
IC50 (human liver cathepsin L [3]; Table 1, read-out: IC50 Cat L): 0.33 µM

CCc1ccccc1NC(=O)CSC(=O)NNC(=O)[C@H](COCc1ccccc1)NC(=O)OC(C)(C)C [Compound No. 46]
IC50 (Human liver cathepsin B; Table 1, read-out: IC50 Cat B): 14.3 µM
IC50 (Human spleen cathepsin S; Table 1, read-out: IC50 Cat S): 2.15 µM
IC50 (human liver cathepsin L [3]; Table 1, read-out: IC50 Cat L): 1.27 µM

CCOC(=O)NNC(=O)[C@H](Cc1c[nH]c2ccccc12)NC(=O)OC(C)(C)C [Compound No. 95]
IC50 (Human liver cathepsin B; Tables 2-11, read-out: Cat B): ≥ 25 µM
IC50 (Human spleen cathepsin S; Tables 2-11, read-out: Cat S): ≥ 25 µM
IC50 (human liver cathepsin L [3]; Tables 2-11, read-out: Cat L): ≥ 25 µM
